For 35 molecules, MIC and melting point results are on record in patent US20060142359A1, “Cyclopenta[c]isoxazole-3-amines used as protective agents for materials” (priority 2002, published 2006).

Molecules are shown by their SMILES. In brackets after ≈: the same amount, converted by molar mass. Read-outs that look alike come from different tables or passages of the source. Bounds are passed on as bounds.

One data set relates to Pseudomonas aeroginosa. Briefly: MIC against bacteria on Landy agar (Use Example A). In kind it is cell-based. The following applies: 72 h, 3 days at 28° C., 60-70% relative atmospheric humidity, read-out: Minimum inhibitory concentrations Pseudomonas aeroginosa. The procedure:
(§1) A defined Landy Agar was admixed with active compounds according to the invention in concentrations of […]. The MIC was determined after 3 days of storage at 28° C. and 60-70% relative atmospheric humidity. The MIC is the lowest concentration of active compound at which there is no colonization by the microbial species used.

In another data set the test system is Bacillus subtilis. Description: MIC against bacteria on Landy agar (Use Example A). It is filed as cell-based. As to conditions: 72 h, 3 days at 28° C., 60-70% relative atmospheric humidity, read-out: Minimum inhibitory concentrations Bacillus subtilis. The procedure:
as §1

Another data set relates to Chaetomium globosum. Description: MIC against fungi on malt extract agar (Use Example B). It is filed as cell-based. As to conditions: 504 h, 3 weeks at 28° C., 60-70% relative atmospheric humidity, read-out: Minimum inhibitory concentrations Chaetomium globosum. The procedure:
(§2) The MIC was determined after 3 weeks of storage at 28° C. and 60-70% relative atmospheric humidity. The MIC is the lowest concentration of active compound at which there is no colonization by the microbial species used.

The next data set concerns Aspergillus niger. The data set is described as above. It is filed as cell-based. As to conditions: 504 h, 3 weeks at 28° C., 60-70% relative atmospheric humidity, read-out: Minimum inhibitory concentrations Aspergillus niger. The procedure: as §2
The subject of another data set is Penicillium brevicaule. Described as above. It is filed as cell-based. The following applies: 504 h, 3 weeks at 28° C., 60-70% relative atmospheric humidity, read-out: Minimum inhibitory concentrations Penicillium brevicaule. The procedure:
as §2

A further data set relates to Geotrichum candidum. Description: MIC antifungal action (Use Example C, analogous to B). In kind it is cell-based. As to conditions: analogously to Use Example B, read-out: minimum inhibitory concentrations (MIC) Geotrichum candidum. The procedure: (§3) An agar which had been prepared using malt extract was admixed with active compounds according to the invention in concentrations of from 0.1 mg/l to 5000 mg/l. The MIC was determined after 3 weeks of storage at 28° C. and 60-70% relative atmospheric humidity. The MIC is the lowest concentration of active compound at which there is no colonization by the microbial species used. Analogously to Use Example B, the minimum inhibitory concentrations (MIC) of active compounds according to the invention were determined. Against fungi such as Fusarium solani, Geotrichum candidum and Rhodotorula rubra the compounds tested had minimum inhibitory concentrations of <500 ppm: […]

In the next data set the test system is Fusarium solani. The data set is described as above. It is filed as cell-based. As to conditions: analogously to Use Example B, read-out: minimum inhibitory concentrations (MIC) Fusarium solani. The procedure:
as §3

Another data set relates to Rhodotorula rubra. The description is as above. In kind it is cell-based. The following applies: analogously to Use Example B, read-out: minimum inhibitory concentrations (MIC) Rhodotorula rubra. The procedure:
as §3

The test system of data set [1] is Pseudomonas aeruginosa NCIB 6749. Briefly: MIC antibacterial action (Use Example D, analogous to A). In kind it is cell-based. The following applies: NCIB6749, 72 h. The procedure: as §1
Analogously to Use Example A, the minimum inhibitory concentrations (MIC) of active compounds according to the invention were determined. Both on chemically defined medium and on complex medium, the compounds tested had minimum inhibitory concentrations </=100 ppm against Pseudomonas aeruginosa NCIB 6749: […]

Setting [2] is: chemically defined medium, read-out: MIC values (chem.def. medium).
Where [3] appears, read: complex medium, read-out: MIC values (complex medium).

`O=C(Nc1onc2c1CCC2)C(F)(F)F` [Example 14] registered a melting point of 118 °C. Moreover, in the data set on Pseudomonas aeroginosa, the MIC was less than 100 µg/mL. In the data set on Bacillus subtilis, the MIC was less than 40 µg/mL. Besides, in the data set on Chaetomium globosum, the MIC came out at 100 µg/mL (≈ 454 µM). In addition, in the data set on Aspergillus niger, the MIC came to 100 µg/mL (≈ 454 µM). Also, the MIC in the data set with Penicillium brevicaule is 100 µg/mL (≈ 454 µM).

`C=COC(=O)N(C(=O)OC=C)c1onc2c1CCC2` [Example 38]: the MIC amounted to 100 µg/mL (≈ 378 µM) with Geotrichum candidum; 50 µg/mL (≈ 189 µM) with Fusarium solani; 100 µg/mL (≈ 378 µM) in the data set on Rhodotorula rubra; 50 µg/mL (≈ 189 µM) in data set [1] (setting [2]); 20 µg/mL (≈ 75.7 µM) in data set [1] (setting [3]).

For `CC(C)CC(=O)N(C(=O)CC(C)C)c1onc2c1CCC2` [Example 16], the melting point is 35 °C.

Regarding `O=C(OCc1ccccc1)N(C(=O)OCc1ccccc1)c1onc2c1CCC2` [Example 40], the MIC in data set [1] (setting [2]) and in data set [1] (setting [3]) was 20 µg/mL (≈ 51 µM) each time.

Take `S=C(Nc1ccccc1)Nc1onc2c1CCC2` [Example 23]: the melting point stood at 146 °C.

On to `CNc1onc2c1CCC2` [Example 2, N-methyl-5,6-dihydro-4H-cyclopenta[c]isoxazole-3-amine], for which the melting point was found to be 52 °C.

Consider `CC(C)C(=O)Nc1onc2c1CCC2` [Example 12], for which the melting point is 116 °C.

Take `COc1ccc(/C=N\c2onc3c2CCC3)cc1` [Example 31]: the melting point was 249 °C.

As for `Fc1ccc(/C=N\c2onc3c2CCC3)cc1` [Example 28], the melting point is greater than 260 °C.

Turning to `O=S(=O)(Nc1onc2c1CCC2)c1ccccc1` [Example 7, N-(5,6-dihydro-4H-cyclopenta[c]isoxazol-3-yl)benzenesulfonamide], the melting point worked out at 132 °C. The MIC in the data set with Pseudomonas aeroginosa is 400 µg/mL (≈ 1510 µM). The MIC in the data set on Bacillus subtilis is 100 µg/mL (≈ 378 µM).

`Cc1ccc(NC(=O)Nc2onc3c2CCC3)c(C)c1` [Example 22] came in with a melting point of 230 °C.

Take `CC(C)COC(=O)N(C(=O)OCC(C)C)c1onc2c1CCC2` [Example 37]: the MIC in data set [1] (setting [2]) came out at 10 µg/mL (≈ 30.8 µM); in data set [1] (setting [3]), 5 µg/mL (≈ 15.4 µM).

As for `C=CCOC(=O)N(C(=O)OCC=C)c1onc2c1CCC2` [Example 43], the MIC in data set [1] (setting [2]) was 20 µg/mL (≈ 68.4 µM); in [1] (setting [3]), 10 µg/mL (≈ 34.2 µM).

As to `FC(F)(F)c1ccc(/C=N\c2onc3c2CCC3)cc1` [Example 32], the melting point was greater than 260 °C.

On to `O=C(OCC(Cl)(Cl)Cl)N(C(=O)OCC(Cl)(Cl)Cl)c1onc2c1CCC2` [Example 36], for which the MIC in data set [1] (setting [2]) worked out at 10 µg/mL (≈ 21.1 µM); in data set [1] (setting [3]), 5 µg/mL (≈ 10.5 µM).

Molecule `O=C(Nc1ccccc1)Nc1onc2c1CCC2` [Example 5, N-(5,6-dihydro-4H-cyclopenta[c]isoxazol-3-yl)-N′-phenylurea] gave a melting point of 202 °C. For the same molecule, the MIC in the data set with Pseudomonas aeroginosa was less than 100 µg/mL. Also, the MIC in the data set on Bacillus subtilis was less than 40 µg/mL. For the same molecule, the MIC in the data set with Chaetomium globosum is 100 µg/mL (≈ 411 µM). Also, the MIC in the data set on Aspergillus niger worked out at 200 µg/mL (≈ 822 µM). In addition, the MIC in the data set on Penicillium brevicaule is 100 µg/mL (≈ 411 µM).

The molecule `CCCCC/C=N\c1onc2c1CCC2` [Example 27] returned a melting point of 125 °C.

For the molecule `C=C(C)OC(=O)N(C(=O)OC(=C)C)c1onc2c1CCC2` [Example 35], the MIC in data set [1] (setting [2]) and in [1] (setting [3]) was 10 µg/mL (≈ 34.2 µM) in each case.

`O=C(Nc1onc2c1CCC2)NC1CCCCC1` [Example 19] came in with a melting point of 152 °C. In addition, the MIC with Pseudomonas aeroginosa stood at 400 µg/mL (≈ 1600 µM). Moreover, the MIC in the data set on Bacillus subtilis was 100 µg/mL (≈ 401 µM).

Regarding `CCCCNC(=S)Nc1onc2c1CCC2` [Example 6, N-butyl-N′-(5,6-dihydro-4H-cyclopenta[c]isoxazol-3-yl)thiourea], the melting point was 93 °C.

For `O=C(OCCBr)N(C(=O)OCCBr)c1onc2c1CCC2` [Example 42], the MIC in the data set on Geotrichum candidum is 500 µg/mL (≈ 1170 µM); in the data set with Fusarium solani it was 200 µg/mL (≈ 469 µM); in the data set on Rhodotorula rubra, 500 µg/mL (≈ 1170 µM); in [1] (setting [2]), 10 µg/mL (≈ 23.5 µM); in data set [1] (setting [3]), 5 µg/mL (≈ 11.7 µM).

In turn, `Cc1ccc(/C=N\c2onc3c2CCC3)cc1` [Example 30] registered a melting point of 238 °C.

Molecule `O=C(Nc1ccc(Cl)cc1)Nc1onc2c1CCC2` [Example 21] showed a melting point of 225 °C.

Consider `Nc1onc2c1CCC2` [Example 1, 5,6-dihydro-4H-cyclopenta[c]isoxazole-3-amine], for which the MIC was less than 100 µg/mL in the data set with Pseudomonas aeroginosa; less than 40 µg/mL in the data set on Bacillus subtilis; less than 100 µg/mL in the data set on Chaetomium globosum; less than 100 µg/mL with Aspergillus niger; less than 100 µg/mL with Penicillium brevicaule.

Consider `O=C(OCCCl)N(C(=O)OCCCl)c1onc2c1CCC2` [Example 41], for which the MIC stood at 500 µg/mL (≈ 1480 µM) with Geotrichum candidum; 200 µg/mL (≈ 593 µM) in the data set on Fusarium solani; 200 µg/mL (≈ 593 µM) in the data set on Rhodotorula rubra; 10 µg/mL (≈ 29.7 µM) in data set [1] (setting [2]); 5 µg/mL (≈ 14.8 µM) in data set [1] (setting [3]).

The molecule `O=C(c1ccco1)N(C(=O)c1ccco1)c1onc2c1CCC2` [Example 17] registered a melting point of 150 °C.

As for `CC(C)S(=O)(=O)Nc1onc2c1CCC2` [Example 24], the melting point stood at 91 °C.

The molecule `Clc1ccc(/C=N\c2onc3c2CCC3)cc1` [Example 29] registered a melting point of 190 °C.

In turn, `Cc1ccc(NC(=O)Nc2onc3c2CCC3)cc1` [Example 20] registered a melting point of 218 °C.

`Cc1ccc(S(=O)(=O)Nc2onc3c2CCC3)cc1` [Example 25]: the melting point is 112 °C.

For the molecule `CCCC(=O)N(C(=O)CCC)c1onc2c1CCC2` [Example 15], the MIC with Pseudomonas aeroginosa was less than 100 µg/mL; in the data set with Bacillus subtilis, 100 µg/mL (≈ 378 µM); in the data set with Chaetomium globosum it was 100 µg/mL (≈ 378 µM); in the data set with Aspergillus niger, greater than 400 µg/mL; with Penicillium brevicaule, 200 µg/mL (≈ 757 µM).

`C(=N/c1onc2c1CCC2)/c1ccccn1` [Example 33]: the melting point was 167 °C.

For `CC(C)(C)C(=O)Nc1onc2c1CCC2` [Example 3, N-(5,6-dihydro-4H-cyclopenta[c]isoxazol-3-yl)-2,2-dimethylpropanamide], the melting point is 113 °C.

As for `C(=N/c1onc2c1CCC2)/c1ccccc1` [Example 8, N-(5,6-dihydro-4H-cyclopenta[c]isoxazol-3-yl)-N-(-phenylmethylidene)amine], the melting point was 166 °C.

As for `CCCCC(CC)COC(=O)N(C(=O)OCC(CC)CCCC)c1onc2c1CCC2` (stereo not drawn) [Example 34], the figures for the MIC in data set [1] (setting [2]) and in data set [1] (setting [3]) were 100 µg/mL (≈ 229 µM) and 50 µg/mL (≈ 115 µM), respectively.

Broadly, the melting point is the temperature, or range, at which the solid turns liquid.
